Earlier results as cited in US7255813B2, “NADH/NADPH-containing compound” (Nutropia Ernahrungsmedizinische Forschungs GmbH, priority 2002, dated 2007).

Conditions: versus synthetic tocopherols

tocotrienol
antioxidative potential, times higher than that of synthetic tocopherols: 50 to 1000 times
